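In this assay, cells in 96-well plates receive the compound at five concentrations for 48 hours. Endpoints are linearly interpolated between the surrounding concentrations. Here, GI50 denotes the concentration required for 50% inhibition of growth.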 Active and inactive are the calls of the source. Rule as the data show it: active = GI50 up to about 1.1 µM and inactive = higher.
Legend:
Assay in all cases: inhibition of tumour cell growth, NCI panel, 48 h
[1] = system: DLD-1
[2] = system: DMS-273
[3] = system: EKVX
[4] = system: HCT-15
[5] = system: IGROV-1
[6] = system: KM-20L2
[7] = system: KM12
[8] = system: M19-MEL
[9] = system: NCI-H226
[10] = system: OVCAR-8
[11] = system: RXF 393
[12] = system: SF-268
[13] = system: SK-OV-3
[14] = system: SNB-78
[15] = system: SW-620
[16] = system: UACC-62
[17] = system: XF498
[18] = system: HL-60
[19] = system: HT-29
[20] = system: SNB-75

Measured: GI50

COc1cccc(NC(=O)CC(=O)NN2C(=O)/C(=C/c3ccc(N(CCC#N)CCC#N)cc3)N=C2c2cc([N+](=O)[O-])ccc2Cl)c1
inactive: [1] 60.3 µM | [2] > 100 µM | [3] 56.1 µM | [5] > 100 µM | [6] 25.8 µM | [7] > 100 µM | [8] > 100 µM | [9] 13.6 µM | [10] 45.8 µM | [11] > 100 µM | [12] > 100 µM | [13] > 100 µM | [14] > 100 µM | [15] > 100 µM | [16] 64.7 µM | [17] 57.7 µM
> 100 µM: [4]

CC(=O)Oc1ccccc1[C@H]1CC(=O)C[C@H](c2ccccc2OC(C)=O)C12C(=O)c1ccccc1C2=O
inactive: [18] > 100 µM | [19] 29.2 µM | [5] 44.5 µM | [7] 59.6 µM | [9] 27.6 µM | [10] 39.6 µM | [11] 24.6 µM | [13] 43 µM | [20] 17.9 µM | [16] 13 µM
26.2 µM: [4]

C=C1C2=C(CCCC2)C(=O)OC12CCCCC2
60.1 µM: [4]
inactive: [1] 92.7 µM | [2] 51.4 µM | [3] 52.1 µM | [18] 27.1 µM | [19] 59.4 µM | [5] 88.9 µM | [6] > 100 µM | [7] 85.5 µM | [8] 46.5 µM | [9] 93.8 µM | [10] > 100 µM | [11] 56.5 µM | [12] 86.1 µM | [13] > 100 µM | [20] 23.8 µM | [15] > 100 µM | [16] 56.9 µM | [17] 97.5 µM

O=C(OCCO)C1CC2CC1C1(C2)OCCO1 (stereo unspecified)
inactive: [1] > 100 µM | [2] > 100 µM | [3] > 100 µM | [18] > 100 µM | [19] > 100 µM | [5] > 100 µM | [6] > 100 µM | [7] > 100 µM | [8] > 100 µM | [9] > 100 µM | [10] > 100 µM | [11] > 100 µM | [12] > 100 µM | [13] > 100 µM | [20] > 100 µM | [14] > 100 µM | [15] > 100 µM | [16] > 100 µM | [17] > 100 µM

COc1ccc(CCn2nccc2C)cc1
inactive: [3] 93.8 µM | [18] > 100 µM | [19] > 100 µM | [5] > 100 µM | [7] > 100 µM | [10] > 100 µM | [11] > 100 µM | [12] > 100 µM | [13] > 100 µM | [20] 50.7 µM | [15] > 100 µM | [16] > 100 µM
> 100 µM: [4]

CC1(Cl)CC2C(CC1Sc1nnnn1-c1ccccc1)C2(C)C (stereo unspecified)
41.3 µM: [4]
inactive: [1] > 100 µM | [2] 71.9 µM | [3] 28.1 µM | [18] 17.9 µM | [19] > 100 µM | [5] > 100 µM | [6] 95.5 µM | [7] 55.6 µM | [8] > 100 µM | [9] > 100 µM | [10] > 100 µM | [11] 48.9 µM | [12] > 100 µM | [14] 92.7 µM | [15] > 100 µM | [16] 98.9 µM

Cc1ccc(SSCCCCCS(=O)O)cc1
inactive: [1] 33.9 µM | [3] 45.3 µM | [18] 16.6 µM | [19] 37.8 µM | [7] 36.1 µM | [8] 37.6 µM | [11] 15.4 µM | [12] 14.6 µM | [13] > 100 µM | [20] 29.6 µM | [14] 25.4 µM | [16] 23.5 µM | [17] 18.6 µM

NCCCCCC(CCN)SCC1OC(n2cnc3c(N)ncnc32)C(O)C1O (stereo unspecified)
> 946 µM: [4]
inactive: [1] > 1500 µM | [2] 369 µM | [3] > 555 µM | [18] 519 µM | [19] 569 µM | [5] 1180 µM | [6] 482 µM | [7] 416 µM | [8] > 843 µM | [9] 589 µM | [10] > 708 µM | [11] 1060 µM | [12] 1460 µM | [13] 927 µM | [20] > 1500 µM | [14] > 1020 µM | [15] > 1500 µM | [16] 537 µM | [17] > 15 µM

COc1ccccc1-c1cc(O)c2cc(C)cnc2n1
inactive: [3] 52.1 µM | [19] 23.1 µM | [5] 16.4 µM | [7] 5.5 µM | [9] 52.2 µM | [10] 66.2 µM | [11] 33.4 µM | [12] 52.7 µM | [13] 25.3 µM | [15] 24.7 µM | [16] 31.8 µM
19.3 µM: [4]
